Article PMC10239507, “Development of allosteric and selective CDK2 inhibitors for contraception with negative cooperativity to cyclin binding” (Nature Communications, 2023)

Assays:
Assay in all cases: biochemical
[1] = molecular target: T1, 371 kinases (kinase named in each endpoint) (Homo sapiens, UniProt P04626); conditions: ERBB2/HER2
T1 construct: purchased Reaction Biology

[2] = molecular target: T2, 371 kinases (kinase named in each endpoint) (Homo sapiens, UniProt P17252); conditions: PKCA
T2 construct: purchased Reaction Biology

[3] = molecular target: T3, 371 kinases (kinase named in each endpoint) (Homo sapiens, UniProt P43403); conditions: ZAP70
T3 construct: purchased Reaction Biology
T3 sequence (P43403 whole entry): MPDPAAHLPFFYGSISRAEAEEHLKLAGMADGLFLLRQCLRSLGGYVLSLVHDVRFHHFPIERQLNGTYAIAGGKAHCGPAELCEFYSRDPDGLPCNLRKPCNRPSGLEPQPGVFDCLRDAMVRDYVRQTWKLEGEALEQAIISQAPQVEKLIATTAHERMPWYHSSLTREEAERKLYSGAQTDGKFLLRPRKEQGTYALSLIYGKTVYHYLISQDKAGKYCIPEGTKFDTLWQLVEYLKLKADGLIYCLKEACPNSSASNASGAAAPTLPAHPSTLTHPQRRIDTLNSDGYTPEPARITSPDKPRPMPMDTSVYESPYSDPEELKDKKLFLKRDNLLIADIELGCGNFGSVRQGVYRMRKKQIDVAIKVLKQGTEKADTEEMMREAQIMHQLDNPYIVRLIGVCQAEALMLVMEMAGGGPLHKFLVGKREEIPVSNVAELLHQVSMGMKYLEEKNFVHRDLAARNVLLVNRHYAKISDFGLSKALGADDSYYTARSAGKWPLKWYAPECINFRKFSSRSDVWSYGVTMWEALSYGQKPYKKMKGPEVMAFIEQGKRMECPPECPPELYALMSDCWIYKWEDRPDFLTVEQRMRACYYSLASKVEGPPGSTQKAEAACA

[4] = molecular target: T4, 371 kinases (kinase named in each endpoint) (Homo sapiens, UniProt Q08345); conditions: DDR1
T4 construct: purchased Reaction Biology

[5] = molecular target: T5, 371 kinases (kinase named in each endpoint) (Homo sapiens, UniProt Q09013); conditions: DMPK
T5 construct: purchased Reaction Biology
T5 sequence (Q09013 whole entry): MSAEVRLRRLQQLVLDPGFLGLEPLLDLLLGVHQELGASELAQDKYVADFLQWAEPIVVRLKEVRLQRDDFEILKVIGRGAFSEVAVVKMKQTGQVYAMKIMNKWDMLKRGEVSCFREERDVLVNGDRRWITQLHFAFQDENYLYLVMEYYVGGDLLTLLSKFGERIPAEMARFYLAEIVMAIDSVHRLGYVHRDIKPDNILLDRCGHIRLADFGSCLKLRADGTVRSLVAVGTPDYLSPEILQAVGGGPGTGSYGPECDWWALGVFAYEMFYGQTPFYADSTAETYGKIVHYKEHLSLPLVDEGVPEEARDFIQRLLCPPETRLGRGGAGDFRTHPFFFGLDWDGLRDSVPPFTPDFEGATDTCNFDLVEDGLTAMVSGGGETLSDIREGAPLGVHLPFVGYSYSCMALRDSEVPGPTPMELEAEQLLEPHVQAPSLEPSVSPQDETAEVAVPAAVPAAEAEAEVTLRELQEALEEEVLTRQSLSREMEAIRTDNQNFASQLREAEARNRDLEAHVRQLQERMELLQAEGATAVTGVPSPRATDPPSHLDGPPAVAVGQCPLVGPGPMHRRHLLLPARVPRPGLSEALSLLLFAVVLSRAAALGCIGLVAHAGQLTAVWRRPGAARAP

[6] = molecular target: T6, 371 kinases (kinase named in each endpoint) (Homo sapiens, UniProt Q15349); conditions: RSK3
T6 construct: purchased Reaction Biology
T6 sequence (Q15349 whole entry): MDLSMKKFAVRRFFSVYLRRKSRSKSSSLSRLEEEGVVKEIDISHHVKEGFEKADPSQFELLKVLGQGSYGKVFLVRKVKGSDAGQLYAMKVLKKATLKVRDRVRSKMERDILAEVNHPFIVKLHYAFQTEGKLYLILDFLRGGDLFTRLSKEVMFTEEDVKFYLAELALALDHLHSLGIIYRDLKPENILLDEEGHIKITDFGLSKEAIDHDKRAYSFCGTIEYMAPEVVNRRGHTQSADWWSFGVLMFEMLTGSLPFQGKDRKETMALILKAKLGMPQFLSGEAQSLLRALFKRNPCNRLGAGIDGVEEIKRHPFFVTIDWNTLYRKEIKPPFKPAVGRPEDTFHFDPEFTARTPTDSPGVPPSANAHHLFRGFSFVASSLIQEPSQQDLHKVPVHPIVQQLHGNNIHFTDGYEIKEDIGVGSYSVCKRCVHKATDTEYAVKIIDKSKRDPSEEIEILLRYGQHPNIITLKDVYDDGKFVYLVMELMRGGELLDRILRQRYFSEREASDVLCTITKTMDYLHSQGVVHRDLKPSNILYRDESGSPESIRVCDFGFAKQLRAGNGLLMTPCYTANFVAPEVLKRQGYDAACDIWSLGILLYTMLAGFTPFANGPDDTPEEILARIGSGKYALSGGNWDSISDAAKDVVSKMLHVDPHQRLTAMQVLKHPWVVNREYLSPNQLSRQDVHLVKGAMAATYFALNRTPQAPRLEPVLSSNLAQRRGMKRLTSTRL

[7] = molecular target: T7, 371 kinases (kinase named in each endpoint) (Homo sapiens, UniProt Q9H2K8); conditions: TAOK3/JIK
T7 construct: purchased Reaction Biology
T7 sequence (Q9H2K8 whole entry): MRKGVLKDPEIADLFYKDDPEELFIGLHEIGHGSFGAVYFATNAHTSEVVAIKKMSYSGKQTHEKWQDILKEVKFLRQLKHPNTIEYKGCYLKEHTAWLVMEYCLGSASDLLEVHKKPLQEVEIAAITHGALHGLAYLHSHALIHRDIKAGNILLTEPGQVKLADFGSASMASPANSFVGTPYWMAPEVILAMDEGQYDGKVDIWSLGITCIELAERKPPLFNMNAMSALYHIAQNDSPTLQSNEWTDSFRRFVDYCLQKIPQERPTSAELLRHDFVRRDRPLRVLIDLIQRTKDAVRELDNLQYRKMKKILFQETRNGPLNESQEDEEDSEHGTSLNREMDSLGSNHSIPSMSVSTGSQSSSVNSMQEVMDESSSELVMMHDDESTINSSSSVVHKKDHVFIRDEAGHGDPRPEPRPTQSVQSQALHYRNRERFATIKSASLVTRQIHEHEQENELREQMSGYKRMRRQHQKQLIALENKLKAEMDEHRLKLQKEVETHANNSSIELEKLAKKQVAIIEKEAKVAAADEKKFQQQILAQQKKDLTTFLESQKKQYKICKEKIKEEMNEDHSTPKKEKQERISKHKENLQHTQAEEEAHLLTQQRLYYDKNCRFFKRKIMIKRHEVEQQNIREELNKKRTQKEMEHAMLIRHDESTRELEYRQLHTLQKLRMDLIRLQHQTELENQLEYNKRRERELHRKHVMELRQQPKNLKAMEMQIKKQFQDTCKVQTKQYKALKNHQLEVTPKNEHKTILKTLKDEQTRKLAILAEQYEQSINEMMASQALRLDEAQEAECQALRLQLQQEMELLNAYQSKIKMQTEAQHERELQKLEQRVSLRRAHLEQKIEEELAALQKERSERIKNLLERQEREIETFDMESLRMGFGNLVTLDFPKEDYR

[8] = molecular target: T8, 371 kinases (kinase named in each endpoint) (Homo sapiens, UniProt Q9P1W9); conditions: PIM2
T8 construct: purchased Reaction Biology
T8 sequence (Q9P1W9 whole entry): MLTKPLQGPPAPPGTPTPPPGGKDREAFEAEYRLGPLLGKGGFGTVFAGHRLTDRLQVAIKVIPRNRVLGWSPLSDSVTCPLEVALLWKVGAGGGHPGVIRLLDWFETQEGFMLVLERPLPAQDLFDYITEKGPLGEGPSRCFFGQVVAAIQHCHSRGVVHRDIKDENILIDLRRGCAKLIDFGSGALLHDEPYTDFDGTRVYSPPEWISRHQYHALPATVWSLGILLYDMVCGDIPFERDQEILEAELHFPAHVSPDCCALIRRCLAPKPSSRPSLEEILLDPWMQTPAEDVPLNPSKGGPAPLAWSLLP

[9] = molecular target: T9, 371 kinases (kinase named in each endpoint) (Homo sapiens, UniProt Q9Y2H1); conditions: STK38L/NDR2
T9 construct: purchased Reaction Biology
T9 sequence (Q9Y2H1 whole entry): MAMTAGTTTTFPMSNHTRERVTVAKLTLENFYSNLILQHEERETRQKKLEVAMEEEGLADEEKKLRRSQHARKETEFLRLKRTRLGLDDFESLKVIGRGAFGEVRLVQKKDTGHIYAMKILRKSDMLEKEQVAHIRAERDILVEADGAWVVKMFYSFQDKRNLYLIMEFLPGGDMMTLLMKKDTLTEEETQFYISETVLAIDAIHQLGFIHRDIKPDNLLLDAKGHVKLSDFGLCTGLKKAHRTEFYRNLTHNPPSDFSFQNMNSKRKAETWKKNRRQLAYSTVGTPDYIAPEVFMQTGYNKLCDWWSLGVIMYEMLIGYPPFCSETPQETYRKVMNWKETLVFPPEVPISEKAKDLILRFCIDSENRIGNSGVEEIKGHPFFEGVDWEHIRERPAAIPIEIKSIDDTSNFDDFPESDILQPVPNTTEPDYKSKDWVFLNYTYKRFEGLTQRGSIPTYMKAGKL

Question: Which activity at 10 µM [1] does the source give for `O=C(O)c1cc(C(F)(F)F)ccc1NCCc1c[nH]c2cc(Br)ccc12` [Compound 5, 2-((2-(6-Bromo-1H-indol-3-yl)ethyl)amino)−5-(trifluoromethyl)benzoic Acid] here?
Answer: 78 ± 0.2%

Question: What about the activity at 10 µM [2] of the same compound?
Answer: 123 ± 5.3%

Question: What about the activity at 10 µM [3] of the same compound?
Answer: 95.1 ± 1.6%

Question: What about the activity at 10 µM [4] of the same compound?
Answer: 87.7 ± 0.4%

Question: What about the activity at 10 µM [5] of the same compound?
Answer: 108.2 ± 0.2%

Question: What about the activity at 10 µM [6] of the same compound?
Answer: 87 ± 1.4%

Question: What about the activity at 10 µM [7] of the same compound?
Answer: 83.3 ± 2.1%

Question: What about the activity at 10 µM [8] of the same compound?
Answer: 92.4 ± 0.6%

Question: And the activity at 10 µM [9]?
Answer: 94 ± 0.9%
